Reference: patent US9493438B2, “4,4-difluoro-piperidine-compounds” (ROTTAPHARM BIOTECH S.R.L., priority 2012, dated 2016)

Tests used:
human OX1 receptors = target: T1, human OX1 receptors (Homo sapiens, UniProt O43613); assay: antagonistic activity against human OX1 receptor, [Ca2+]i fluorimetry in transfected CHO cells; type: cell-based; conditions: CHO cells transfected with human recombinant OX1; activated with orexin-A 3 nM; pKb = co-logarithm of apparent dissociation constant (modified Cheng Prusoff)
T1 construct: expressed in transfected cells; host or cells: CHO cells
T1 sequence (O43613 1-425): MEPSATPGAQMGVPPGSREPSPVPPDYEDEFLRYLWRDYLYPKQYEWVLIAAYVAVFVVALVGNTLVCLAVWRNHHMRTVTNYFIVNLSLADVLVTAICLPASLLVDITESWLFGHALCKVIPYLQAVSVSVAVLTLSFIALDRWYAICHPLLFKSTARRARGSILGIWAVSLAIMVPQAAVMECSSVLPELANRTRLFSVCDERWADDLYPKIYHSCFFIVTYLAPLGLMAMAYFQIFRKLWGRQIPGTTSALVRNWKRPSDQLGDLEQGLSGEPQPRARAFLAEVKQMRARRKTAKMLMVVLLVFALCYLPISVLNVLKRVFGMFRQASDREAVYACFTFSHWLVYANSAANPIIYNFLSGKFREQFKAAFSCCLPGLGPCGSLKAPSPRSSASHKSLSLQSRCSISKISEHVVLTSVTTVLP
Method: (§1) Thus the plate was loaded with the calcium dye (Fluo-4NW/probenecid in HBSS, Hepes 20 mM, pH 7.4; Invitrogen) at 37° C. for 60 min. Afterward the temperature was equilibrated at 22° C. for 15 min and the [Ca2+]i measured directly on the plate by using a fluorescent plate reader (CeliLux Perkin Elmer).
(§2) Invention compounds were dissolved in DMSO, diluted in HBSS (DMSO, 0.3% final) and added to the wells. After 5 min CHO cells were activated with orexin-A, 3 nM while HEK-293 cells were activated with orexin-B, 10 nM. […] The antagonistic activity has been expressed as pKb (co-logarithm of the apparent dissociation constant calculated by using the modified Cheng Prusoff equation). The results are expressed as percent of control specific […] response ((measured specific response/control specific agonist response)×100) obtained in the presence of the test compounds.
(§3) The IC50 values (concentration causing a half-maximal inhibition of the control specific agonist response) were determinated by non-linear regression analysis of the concentration curves generated with mean replicate values using hill equation curve fitting. The IC50 values are obtained by the arithmetical mean of at least two experiments.

human OX2 receptors = target: T2, human OX2 receptors (Homo sapiens, UniProt O43614); assay: antagonistic activity against human OX2 receptor, [Ca2+]i fluorimetry in transfected HEK-293 cells; type: cell-based; conditions: read-out: PKb OX2 (converted)
T2 construct: expressed in transfected cells; host or cells: HEK-293 cells
T2 sequence (O43614 1-444): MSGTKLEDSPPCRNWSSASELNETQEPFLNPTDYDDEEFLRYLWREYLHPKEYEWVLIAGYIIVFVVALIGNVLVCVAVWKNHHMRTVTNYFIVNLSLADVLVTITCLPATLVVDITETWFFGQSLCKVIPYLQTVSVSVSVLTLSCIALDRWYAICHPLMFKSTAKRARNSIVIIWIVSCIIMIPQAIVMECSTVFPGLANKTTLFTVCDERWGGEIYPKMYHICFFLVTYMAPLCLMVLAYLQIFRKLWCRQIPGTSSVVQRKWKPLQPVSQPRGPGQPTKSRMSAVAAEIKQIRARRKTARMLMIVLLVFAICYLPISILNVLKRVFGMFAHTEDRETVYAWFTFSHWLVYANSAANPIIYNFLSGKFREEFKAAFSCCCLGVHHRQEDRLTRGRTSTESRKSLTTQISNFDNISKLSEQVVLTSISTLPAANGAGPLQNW
Method: as §1, §2, §3

| Kb (human OX1 receptors) [nM] | Kb (human OX2 receptors) [nM] | Compound |
| --- | --- | --- |
| 2.51 | 10000 | Cc1ccc(-c2ncccn2)c(C(=O)N2CCC(F)(F)CC2CNc2ncc(C(F)(F)F)cc2F)n1 (single isomer, unassigned; isomer a) [Compound 32, (4,4-difluoro-2-(((3-fluoro-5-(trifluoromethyl)pyridin-2-yl)amino)methyl)piperidin-1-yl)(6-methyl-3-(pyrimidin-2-yl)pyridin-2-yl)methanone (isomer A)] |
| 15.8 | 10000 | Cc1ccc(OCC2CC2)c(C(=O)N2CCC(F)(F)C[C@H]2CNc2ccc(C(F)(F)F)cn2)n1 [Compound 46, (S)(3-(cyclopropylmethoxy)-6-methylpyridin-2-yl)(4,4-difluoro-2-(((5-(trifluoromethyl)pyridin-2-yl)amino)methyl)piperidin-1-yl)methanone] |
| 3.16 | 126 | Cc1ccc(-c2ccccc2)c(C(=O)N2CCC(F)(F)CC2CNc2ccc(C(F)(F)F)cn2)n1 (single isomer, unassigned; isomer b) [Compound 38, (4,4-difluoro-2-(((5-(trifluoromethyl)pyridin-2-yl)amino)methyl)piperidin-1-yl)(6-methyl-3-phenylpyridin-2-yl)methanone (isomer B)] |
| 1 | 10000 | O=C(c1nccc2ccccc12)N1CCC(F)(F)CC1CNc1ccc(Cl)cn1 (single isomer, unassigned; isomer b) [Compound 24, (2-(((5-chloropyridin-2-yl)amino)methyl)-4,4-difluoropiperidin-1-yl)(isoquinolin-1-yl)methanone (isomer B)] |
| 1.58 | 10000 | N#Cc1ccc(-c2ncccn2)c(C(=O)N2CCC(F)(F)CC2CNc2ccc(Cl)cn2)c1 (racemic) [Compound 27, (RS)3-(2-(((5-chloropyridin-2-yl)amino)methyl)-4,4-difluoropiperidin-1-carbonyl)-4-(pyrimidin-2-yl)benzonitrile] |
| 0.794 | 316 | Cc1ccc(-c2ncccn2)c(C(=O)N2CCC(F)(F)CC2CNc2ccc(C(F)(F)F)cn2)n1 (single isomer, unassigned; isomer a) [Compound 20, (4,4-difluoro-2-(((5-(trifluoromethyl)pyridin-2-yl)amino)methyl)piperidin-1-yl)(6-methyl-3-(pyrimidin-2-yl)pyridin-2-yl)methanone (isomer A)] |
| 31.6 | 10000 | O=C(c1nc(C(F)(F)F)ccc1-c1ncccn1)N1CCC(F)(F)CC1CNc1ccc(C(F)(F)F)cn1 (racemic) [Compound 39, (RS)(4,4-difluoro-2-(((5-(trifluoromethyl)pyridin-2-yl)amino)methyl)piperidin-1-yl)(3-(pyrimidin-2-yl)-6-(trifluoromethyl)pyridin-2-yl)methanone] |
| 15.8 | 10000 | Cc1ccc(-c2ccccn2)c(C(=O)N2CCC(F)(F)CC2CNc2ccc(C(F)(F)F)cn2)n1 (racemic) [Compound 53, (RS)(4,4-difluoro-2-(((5-(trifluoromethyl)pyridin-2-yl)amino)methyl)piperidin-1-yl)(6′-methyl-[2,3′-bipyridin]-2′-yl)methanone] |
| 0.631 | 10000 | Cc1ccc(-c2ncccn2)c(C(=O)N2CCC(F)(F)CC2CNc2ccc(Cl)cn2)n1 (single isomer, unassigned; isomer a) [Compound 16, (2-(((5-chloropyridin-2-yl)amino)methyl)-4,4-difluoropiperidin-1-yl)(6-methyl-3-(pyrimidin-2-yl)pyridin-2-yl)methanone (isomer A)] |
| 31.6 | 1000 | CN(C)c1ccc(-c2ccccc2)c(C(=O)N2CCC(F)(F)CC2CNc2ccc(Cl)cn2)c1 (racemic) [Compound 18, (RS)(2-(((5-chloropyridin-2-yl)amino)methyl)-4,4-difluoropiperidin-1-yl)(4-(dimethylamino)-[1,1′-biphenyl]-2-yl)methanone] |
